{
  "source": "patent EP0973746B1",
  "about": "“SUBSTITUTED 3-CYANO QUINOLINES” (Wyeth Holdings Corporation, priority 1997, dated 1998)",
  "test_system": "COLO205",
  "experiment": "Inhibition of cancer cell growth as measured by cell number, COLO205",
  "format": "cell-based",
  "details": "Homo sapiens, COLO 205, 48 h, read-out: IC50 COLO205",
  "data": [
    {"smiles": "CCOc1cc2ncc(C#N)c(Nc3cccc(Br)c3)c2cc1OCC", "note": "[Example 47, 4-[(3-Bromophenyl)amino]6,7-diethoxy-3-quinolinecarbonitrile]", "values": [
      {"measurement": "IC50", "result": 0.0757, "unit": "µg/mL"}
    ]}
  ]
}
